Structures can show the parent of a compound that is named as a salt.
The compounds below were run on progranulin (PGRN) (assay: progranulin induction cellular assay (PGRN assay), ELISA-based readout). Details: PGRN assay as described: mouse primary microglia, primary cortical neurons and BV-2 cell lines; secreted mouse PGRN in medium by ELISA; cell type for Table B not specified.

SMILES | EC50 [nM]
CS(=O)(=O)CCNC12CC(OC(=O)N3CCc4ccccc4[C@@H]3c3ccc(F)cc3)(C1)C2 [Compound 4027, 3-((2-(Methylsulfonyl)ethyl)amino)bicyclo[1.1.1]pentan-1-yl (S)-1-(4-fluorophenyl)-3,4-dihydroisoquinoline-2(1H)-carboxylate hydrochloride] | 1060
NC12CC(NC(=O)N3CCc4ccccc4[C@H]3c3ccc(F)cc3)(C1)C2 [Compound 4003, (R)—N-(3-aminobicyclo[1.1.1]pentan-1-yl)-1-(4-fluorophenyl)-3,4-dihydroisoquinoline-2(1H)-carboxamide] | 720
CS(=O)(=O)NC12CC(NC(=O)N3CCc4ccccc4[C@@H]3c3ccc(F)cc3)(C1)C2 [Compound 4017, (S)-1-(4-fluorophenyl)-N-(3-(methylsulfonamido)bicyclo[1.1.1]pentan-1-yl)-3,4-dihydroisoquinoline-2(1H)-carboxamide] | > 10000
CN(C(=O)N1CCc2ccccc2[C@@H]1c1ccc(F)cc1)[C@H]1C[C@H](N)C1 [Compound 4055, (S)—N-((trans)-3-aminocyclobutyl)-1-(4-fluorophenyl)-N-methyl-3,4-dihydroisoquinoline-2(1H)-carboxamide] | 160
NC[C@H]1C[C@H](OC(=O)N2CCc3ccccc3[C@@H]2c2ccc(F)cc2)C1 [Compound 4031, Trans-3-(aminomethyl)cyclobutyl (S)-1-(4-fluorophenyl)-3,4-dihydroisoquinoline-2(1H)-carboxylate] | > 10000
CN[C@H]1C[C@@H](NC(=O)N2CCc3ccccc3[C@@H]2c2ccc(F)cc2)C1 [Compound 4066] | 610
CS(=O)(=O)CCNC12CC(NC(=O)N3CCc4ccccc4[C@@H]3c3ccc(F)cc3)(C1)C2 [Compound 4007, (S)-1-(4-fluorophenyl)-N-(3-((2-(methylsulfonyl)ethyl)amino)bicyclo[1.1.1]pentan-1-yl)-3,4-dihydroisoquinoline-2(1H)-carboxamide 2,2,2-trifluoroacetate] | > 10000
O=C(OC12CC(NCC(F)(F)F)(C1)C2)N1CCc2ccccc2[C@@H]1c1ccc(F)cc1 [Compound 4014, 3-((2,2,2-trifluoroethyl)amino)bicyclo[1.1.1]pentan-1-yl (S)-1-(4-fluorophenyl)-3,4-dihydroisoquinoline-2(1H)-carboxylate] | > 10000
CN[C@H]1C[C@H](N(C)C(=O)N2CCc3ccccc3[C@@H]2c2ccc(F)cc2)C1 [Compound 4044, (S)-1-(4-fluorophenyl)-N-methyl-N-((trans)-3-(methylamino)cyclobutyl)-3,4-dihydroisoquinoline-2(1H)-carboxamide hydrochloride] | 1030
O=C(NC12CC(N3CC(F)(F)C3)(C1)C2)N1CCc2ccccc2[C@@H]1c1ccc(F)cc1 [Compound 4052, (S)—N-(3-(3,3-difluoroazetidin-1-yl)bicyclo[1.1.1]pentan-1-yl)-1-(4-fluorophenyl)-3,4-dihydroisoquinoline-2(1H)-carboxamide] | > 10000

The next lines start with the values.

EC50 [nM] | SMILES
604 | NC12CC(OC(=O)N3CCc4ccccc4[C@@H]3c3ccccc3)(C1)C2 [Compound 4136, 3-aminobicyclo[1.1.1]pentan-1-yl (S)-1-phenyl-3,4-dihydroisoquinoline-2(1H)-carboxylate]
92 | N[C@H]1C[C@@H](C(=O)N2CCc3ccccc3[C@@H]2c2ccc(F)cc2)C1 [Compound 4148, (cis-3-aminocyclobutyl)((S)-1-(4-fluorophenyl)-3,4-dihydroisoquinolin-2(1H)-yl)methanone]
112 | NC[C@]1(O)C[C@H](C(=O)N2CCc3ccccc3[C@@H]2c2ccc(F)cc2)C1 [Compound 4154, (trans-3-(aminomethyl)-3-hydroxycyclobutyl)((S)-1-(4-fluorophenyl)-3,4-dihydroisoquinolin-2(1H)-yl)methanone]
318 | CCN[C@H]1C[C@@H](OC(=O)N2CCc3ccccc3[C@@H]2c2ccc(F)cc2)C1 [Compound 4129]
773 | CN(C)[C@H]1C[C@@H](OC(=O)N2CCc3ccccc3[C@@H]2c2ccc(F)cc2)C1 [Compound 4127]
191 | O=C(O[C@H]1C[C@@H](NCCO)C1)N1CCc2ccccc2[C@@H]1c1ccc(F)cc1 [Compound 4145, cis-3-((2-hydroxyethyl)amino)cyclobutyl (S)-1-(4-fluorophenyl)-3,4-dihydroisoquinoline-2(1H)-carboxylate]
